Reference: PubChem BioAssay AID1918954 (Molecular Pharmacology Branch, DTP, NCI, 2023)
“And” between values parts separate entries of the source, which are not always exact repeats. Equal values may be shown once.

Test system: MDA-MB-468 complex spheroids with HUVEC/MSC, viability
Test: Anticancer human tumor MDA-MB-468 cell line growth inhibition;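 further: spheroids exposed to agents for seven days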;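 on viability, T/C: 100% = DMSO vehicle control viability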
Conditions: for viability, T/C: stronger effect = lower value
Procedure, shortened: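 Multicellular complex spheroids of tumor cells with human endothelial cells (HUVEC) and mesenchymal stem cells; the LSD1 inhibitor iadademstat was combined with standard-of-care or investigational agents. Top concentration at or near clinical Cmax, half-log dilutions; final DMSO ≤0.25%.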

[1] = curve of first compound, second compound 0.1 µM
[2] = curve of first compound, second compound 0.316 µM
[3] = curve of first compound, second compound 1 µM
[4] = curve of first compound, second compound 3.16 µM
[5] = curve of first compound, second compound 10 µM
[6] = second compound 0.1 µM, first compound 0.0316 µM
[7] = second compound 0.1 µM, first compound 0.1 µM
[8] = second compound 0.1 µM, first compound 0.316 µM
[9] = second compound 0.1 µM, first compound 1 µM
[10] = second compound 0.1 µM, first compound 3.16 µM
[11] = second compound 0.1 µM, first compound 10 µM
[12] = second compound 0.316 µM, first compound 0.0316 µM
[13] = second compound 0.316 µM, first compound 0.1 µM
[14] = second compound 0.316 µM, first compound 0.316 µM
[15] = second compound 0.316 µM, first compound 1 µM
[16] = second compound 0.316 µM, first compound 3.16 µM
[17] = second compound 0.316 µM, first compound 10 µM
[18] = second compound 1 µM, first compound 0.0316 µM
[19] = second compound 1 µM, first compound 0.1 µM
[20] = second compound 1 µM, first compound 0.316 µM
[21] = second compound 1 µM, first compound 1 µM
[22] = second compound 1 µM, first compound 3.16 µM
[23] = second compound 1 µM, first compound 10 µM
[24] = second compound 3.16 µM, first compound 0.0316 µM
[25] = second compound 3.16 µM, first compound 0.1 µM
[26] = second compound 3.16 µM, first compound 0.316 µM
[27] = second compound 3.16 µM, first compound 1 µM
[28] = second compound 3.16 µM, first compound 3.16 µM
[29] = second compound 3.16 µM, first compound 10 µM
[30] = second compound 10 µM, first compound 0.0316 µM
[31] = second compound 10 µM, first compound 0.1 µM
[32] = second compound 10 µM, first compound 0.316 µM
[33] = second compound 10 µM, first compound 1 µM
[34] = second compound 10 µM, first compound 3.16 µM
[35] = second compound 10 µM, first compound 10 µM

## CC1(C)CCC(CN2CCN(c3ccc(C(=O)NS(=O)(=O)c4ccc(NCC5CCOCC5)c([N+](=O)[O-])c4)c(Oc4cnc5[nH]ccc5c4)c3)CC2)=C(c2ccc(Cl)cc2)C1
Compound 0.0316 µM
  viability, T/C: 93.2% and 90.6%
Compound 0.1 µM
  viability, T/C: 102% and 95.5%
Compound 0.316 µM
  viability, T/C: 101% and 85.6%
Compound 1 µM
  viability, T/C: 91.7% and 74%
Compound 3.16 µM
  viability, T/C: 70.5% and 30.9%
Curve of compound
  IC50: 6600 nM and 1880 nM

## Nc1ncn(C2CC(O)C(CO)S2)c(=O)n1 (centres undefined) + NC1CC1c1ccc(-c2cccc(O)c2)cc1
[1]
  IC50: 21.2 nM
[2]
  IC50: 18.9 nM
[3]
  IC50: 11.8 nM
[4]
  IC50: 10.7 nM
[5]
  IC50: 3.83 nM
Second compound 0.1 µM, first compound 0.000949 µM
  viability, T/C: 104%
Second compound 0.1 µM, first compound 0.003 µM
  viability, T/C: 87.9%
Second compound 0.1 µM, first compound 0.00949 µM
  viability, T/C: 56.7%
Second compound 0.1 µM, first compound 0.03 µM
  viability, T/C: 47.2%
Second compound 0.1 µM, first compound 0.0949 µM
  viability, T/C: 31.8%
Second compound 0.1 µM, first compound 0.3 µM
  viability, T/C: 19.5%
Second compound 0.316 µM, first compound 0.000949 µM
  viability, T/C: 84%
Second compound 0.316 µM, first compound 0.003 µM
  viability, T/C: 77.1%
Second compound 0.316 µM, first compound 0.00949 µM
  viability, T/C: 57.8%
Second compound 0.316 µM, first compound 0.03 µM
  viability, T/C: 45.1%
Second compound 0.316 µM, first compound 0.0949 µM
  viability, T/C: 26.3%
Second compound 0.316 µM, first compound 0.3 µM
  viability, T/C: 16.4%
Second compound 1 µM, first compound 0.000949 µM
  viability, T/C: 80.8%
Second compound 1 µM, first compound 0.003 µM
  viability, T/C: 76%
Second compound 1 µM, first compound 0.00949 µM
  viability, T/C: 49.6%
Second compound 1 µM, first compound 0.03 µM
  viability, T/C: 35.4%
Second compound 1 µM, first compound 0.0949 µM
  viability, T/C: 23.9%
Second compound 1 µM, first compound 0.3 µM
  viability, T/C: 13.9%
Second compound 3.16 µM, first compound 0.000949 µM
  viability, T/C: 90.4%
Second compound 3.16 µM, first compound 0.003 µM
  viability, T/C: 81.3%
Second compound 3.16 µM, first compound 0.00949 µM
  viability, T/C: 47.7%
Second compound 3.16 µM, first compound 0.03 µM
  viability, T/C: 33%
Second compound 3.16 µM, first compound 0.0949 µM
  viability, T/C: 22.5%
Second compound 3.16 µM, first compound 0.3 µM
  viability, T/C: 13.5%
Second compound 10 µM, first compound 0.000949 µM
  viability, T/C: 62.5%
Second compound 10 µM, first compound 0.003 µM
  viability, T/C: 53.6%
Second compound 10 µM, first compound 0.00949 µM
  viability, T/C: 39.1%
Second compound 10 µM, first compound 0.03 µM
  viability, T/C: 29.9%
Second compound 10 µM, first compound 0.0949 µM
  viability, T/C: 19.8%
Second compound 10 µM, first compound 0.3 µM
  viability, T/C: 13.8%

## O=C(C=Cn1cnc(-c2cc(C(F)(F)F)cc(C(F)(F)F)c2)n1)NNc1cnccn1
Compound 0.00316 µM
  viability, T/C: 39.9% and 36.5%
Compound 0.01 µM
  viability, T/C: 29.8% and 27.9%
Compound 0.0316 µM
  viability, T/C: 8.39% and 16.7%
Compound 0.1 µM
  viability, T/C: 3.01% and 3.24%
Compound 0.316 µM
  viability, T/C: 2.33% and 1.39%
Compound 1 µM
  viability, T/C: 1.59% and 0.94%
Curve of compound
  IC50: < 3.16 nM

## CC1COCCN1c1cc(C2(S(C)(=N)=O)CC2)nc(-c2ccnc3[nH]ccc23)n1 (centres undefined) + NC1CCC(NC2CC2c2ccccc2)CC1
[1]
  IC50: 330 nM
[2]
  IC50: 450 nM
[3]
  IC50: 326 nM
[4]
  IC50: 394 nM
[5]
  IC50: 221 nM
[6]
  viability, T/C: 103%
[7]
  viability, T/C: 73.1%
[8]
  viability, T/C: 49.5%
[9]
  viability, T/C: 34.9%
[10]
  viability, T/C: 21.3%
[11]
  viability, T/C: 10.2%
[12]
  viability, T/C: 76.9%
[13]
  viability, T/C: 72.2%
[14]
  viability, T/C: 55.8%
[15]
  viability, T/C: 35.1%
[16]
  viability, T/C: 21.2%
[17]
  viability, T/C: 10.6%
[18]
  viability, T/C: 74.1%
[19]
  viability, T/C: 71%
[20]
  viability, T/C: 45.4%
[21]
  viability, T/C: 34.4%
[22]
  viability, T/C: 25.8%
[23]
  viability, T/C: 11.3%
[24]
  viability, T/C: 75.5%
[25]
  viability, T/C: 74.6%
[26]
  viability, T/C: 48.9%
[27]
  viability, T/C: 36.7%
[28]
  viability, T/C: 21.2%
[29]
  viability, T/C: 12.4%
[30]
  viability, T/C: 63.9%
[31]
  viability, T/C: 54.7%
[32]
  viability, T/C: 48.2%
[33]
  viability, T/C: 35.2%
[34]
  viability, T/C: 21.1%
[35]
  viability, T/C: 8.95%

## CC(C)CC(NC(=O)CNC(=O)c1cc(Cl)ccc1Cl)B1OC(=O)CC(CC(=O)O)(C(=O)O)O1 (centres undefined)
Compound 0.000316 µM
  viability, T/C: 109%
Compound 0.001 µM
  viability, T/C: 90.5% and 96.4%
Compound 0.00316 µM
  viability, T/C: 55.3% and 42.1%
Compound 0.01 µM
  viability, T/C: 11.1% and 5.88%
Compound 0.0316 µM
  viability, T/C: 1.51% and 0.31%
Compound 0.1 µM
  viability, T/C: 1.72% and 0.22%
Curve of compound
  IC50: 3.43 nM and 2.67 nM

## O=C(c1cc(Cc2n[nH]c(=O)c3ccccc23)ccc1F)N1CCN(C(=O)C2CC2)CC1 + NC1CCC(NC2CC2c2ccccc2)CC1
[1]
  IC50: 775 nM
[2]
  IC50: 812 nM
[3]
  IC50: 786 nM
[4]
  IC50: 909 nM
[5]
  IC50: 411 nM
[6]
  viability, T/C: 89.5%
[7]
  viability, T/C: 103%
[8]
  viability, T/C: 76.2%
[9]
  viability, T/C: 42.6%
[10]
  viability, T/C: 19.3%
[11]
  viability, T/C: 13.6%
[12]
  viability, T/C: 93.8%
[13]
  viability, T/C: 87.8%
[14]
  viability, T/C: 71.4%
[15]
  viability, T/C: 47.7%
[16]
  viability, T/C: 18.2%
[17]
  viability, T/C: 13.8%
[18]
  viability, T/C: 90.2%
[19]
  viability, T/C: 80.8%
[20]
  viability, T/C: 71.7%
[21]
  viability, T/C: 45.2%
[22]
  viability, T/C: 21%
[23]
  viability, T/C: 15.1%
[24]
  viability, T/C: 68.4%
[25]
  viability, T/C: 75.3%
[26]
  viability, T/C: 77%
[27]
  viability, T/C: 47.9%
[28]
  viability, T/C: 20.8%
[29]
  viability, T/C: 17%
[30]
  viability, T/C: 73.9%
[31]
  viability, T/C: 65.8%
[32]
  viability, T/C: 53.4%
[33]
  viability, T/C: 38.9%
[34]
  viability, T/C: 23.6%
[35]
  viability, T/C: 18.6%

## Nc1ncn(C2CC(O)C(CO)O2)c(=O)n1 (centres undefined) + NC1CCC(NC2CC2c2ccccc2)CC1
[1]
  IC50: 14.2 nM
[2]
  IC50: 9.71 nM
[3]
  IC50: 12.3 nM
[4]
  IC50: 11.6 nM
[5]
  IC50: 5.55 nM
Second compound 0.1 µM, first compound 0.00316 µM
  viability, T/C: 88.4%
Second compound 0.1 µM, first compound 0.01 µM
  viability, T/C: 59.4%
[6]
  viability, T/C: 28.7%
[7]
  viability, T/C: 14.2%
[8]
  viability, T/C: 9.84%
[9]
  viability, T/C: 8.86%
Second compound 0.316 µM, first compound 0.00316 µM
  viability, T/C: 84.6%
Second compound 0.316 µM, first compound 0.01 µM
  viability, T/C: 48.6%
[12]
  viability, T/C: 28.1%
[13]
  viability, T/C: 15.6%
[14]
  viability, T/C: 9.97%
[15]
  viability, T/C: 10.2%
Second compound 1 µM, first compound 0.00316 µM
  viability, T/C: 83%
Second compound 1 µM, first compound 0.01 µM
  viability, T/C: 54.9%
[18]
  viability, T/C: 27.5%
[19]
  viability, T/C: 15.4%
[20]
  viability, T/C: 11.1%
[21]
  viability, T/C: 10.6%
Second compound 3.16 µM, first compound 0.00316 µM
  viability, T/C: 67.7%
Second compound 3.16 µM, first compound 0.01 µM
  viability, T/C: 53.4%
[24]
  viability, T/C: 28.2%
[25]
  viability, T/C: 15.5%
[26]
  viability, T/C: 11.3%
[27]
  viability, T/C: 9.32%
Second compound 10 µM, first compound 0.00316 µM
  viability, T/C: 57.4%
Second compound 10 µM, first compound 0.01 µM
  viability, T/C: 42.2%
[30]
  viability, T/C: 24.4%
[31]
  viability, T/C: 14.4%
[32]
  viability, T/C: 10.6%
[33]
  viability, T/C: 10.1%

## CCc1c2c(nc3ccc(O)cc13)-c1cc3c(c(=O)n1C2)COC(=O)[C@]3(O)CC
Compound 0.000949 µM
  viability, T/C: 7.07% and 5.35%
Compound 0.003 µM
  viability, T/C: 7.03% and 4.74%
Compound 0.00949 µM
  viability, T/C: 5.45% and 2.28%
Compound 0.03 µM
  viability, T/C: 2.45% and 0.63%
Compound 0.0949 µM
  viability, T/C: 2.17% and 0.53%
Compound 0.3 µM
  viability, T/C: 2.73% and 0.59%
Curve of compound
  IC50: < 0.949 nM

## Cn1ncnc1C1c2n[nH]c(=O)c3cc(F)cc(c23)NC1c1ccc(F)cc1 (centres undefined)
Compound 0.000316 µM
  viability, T/C: 103% and 96.9%
Compound 0.001 µM
  viability, T/C: 86.7% and 79.6%
Compound 0.00316 µM
  viability, T/C: 77.2% and 65.3%
Compound 0.01 µM
  viability, T/C: 72% and 75%
Compound 0.0316 µM
  viability, T/C: 61.2% and 64.5%
Compound 0.1 µM
  viability, T/C: 60.7% and 50.9%
Curve of compound
  IC50: > 100 nM
